In this test the test system is NHBE cells. Nature of the test: Biolog metabolic array: substrate use by NHBE cells with or without CA09 infection. In kind it is cell-based, human. The following applies: for Substrate use, 590 nm absorbance normalized to zero hour, 1 hr: Biolog PMM2, 1 hr; for Substrate use, 590 nm absorbance normalized to zero hour, 5 hr: Biolog PMM2, 5 hr; for Substrate use, 590 nm absorbance normalized to zero hour, 7 hr: Biolog PMM2, 7 hr.

Setting [1] is: Control (uninfected) NHBE cells.
[2] abbreviates: Virus (CA09, MOI 1) infected NHBE cells.
The mark [3] stands for this setting: Virus (CA09-infected, MOI 1) NHBE cells.

In the case of `O=C[C@H](O)[C@@H](O)[C@H](O)[C@H](O)C(=O)O` [D-Glucuronic Acid], under setting [1], the “590 nm absorbance normalized to zero hour (substrate use), 1 hr” value turned out to be 1.13; the “590 nm absorbance normalized to zero hour (substrate use), 2 hr” value (“590 nm absorbance normalized … 2 hr” for short) is on record as 1.37; the “590 nm absorbance normalized to zero hour (substrate use), 3 hr” value (shortened to “590 nm absorbance normalized … 3 hr”) is on record as 1.29; the “590 nm absorbance normalized to zero hour (substrate use), 4 hr” value (“590 nm absorbance normalized … 4 hr” below) turned out to be 1.42. Moreover, under setting [1], the “590 nm absorbance normalized to zero hour (substrate use), 6 hr” value (from here on “590 nm absorbance normalized … 6 hr”) is 0.86; the “590 nm absorbance normalized to zero hour (substrate use), 8 hr” value (shortened to “590 nm absorbance normalized … 8 hr”) was found to be 1.83; the “590 nm absorbance normalized to zero hour (substrate use), 9 hr” value (“590 nm absorbance normalized … 9 hr” below) is recorded as 1.90; the “590 nm absorbance normalized to zero hour (substrate use), 10 hr” value (from here on “590 nm absorbance normalized … 10 hr”) was found to be 2.04. Under setting [1], the “590 nm absorbance normalized to zero hour (substrate use), 11 hr” value (“590 nm absorbance normalized … 11 hr” below) was 2.34; the “Substrate use, 590 nm absorbance normalized to zero hour, 1 hr” value amounted to 1.13; the “Substrate use, 590 nm absorbance normalized to zero hour, 5 hr” value is given as 1.57; the “Substrate use, 590 nm absorbance normalized to zero hour, 7 hr” value is 1.71. Under setting [2], the “Substrate use, 590 nm absorbance normalized to zero hour, 1 hr” value is 1.44; the “Substrate use, 590 nm absorbance normalized to zero hour, 5 hr” value is recorded as 2.79; the “Substrate use, 590 nm absorbance normalized to zero hour, 7 hr” value is on record as 3.14. For the same compound, under setting [3], the “590 nm absorbance normalized to zero hour (substrate use), 1 hr” value turned out to be 1.44; the “590 nm absorbance normalized … 2 hr” value stood at 1.90; the “590 nm absorbance normalized … 3 hr” value stood at 2.18; the “590 nm absorbance normalized … 4 hr” value was determined as 2.37. In addition, under setting [3], the “590 nm absorbance normalized … 6 hr” value is given as 2.96; the “590 nm absorbance normalized … 8 hr” value stood at 3.24; the “590 nm absorbance normalized … 9 hr” value was determined as 3.62; the “590 nm absorbance normalized … 10 hr” value was 3.66. For the same compound, the “590 nm absorbance normalized … 11 hr” value under setting [3] is on record as 3.99.
Turning to `O=C[C@H](O)[C@@H](O)[C@H](O)[C@H](O)COP(=O)(O)O` [D-Glucose-6-Phosphate], under setting [1], the “590 nm absorbance normalized to zero hour (substrate use), 1 hr” value is given as 1.14; the “590 nm absorbance normalized … 2 hr” value is on record as 1.18; the “590 nm absorbance normalized … 3 hr” value amounted to 3.24; the “590 nm absorbance normalized … 4 hr” value came to 1.30. Under setting [1], the “590 nm absorbance normalized … 6 hr” value stood at 0.74; the “590 nm absorbance normalized … 8 hr” value worked out at 1.28; the “590 nm absorbance normalized … 9 hr” value is recorded as 1.38; the “590 nm absorbance normalized … 10 hr” value came to 2.69. Also, under setting [1], the “590 nm absorbance normalized … 11 hr” value is on record as 1.87; the “Substrate use, 590 nm absorbance normalized to zero hour, 1 hr” value stood at 1.14; the “Substrate use, 590 nm absorbance normalized to zero hour, 5 hr” value is 1.48; the “Substrate use, 590 nm absorbance normalized to zero hour, 7 hr” value is on record as 2.93. Under setting [2], the “Substrate use, 590 nm absorbance normalized to zero hour, 1 hr” value worked out at 2.01; the “Substrate use, 590 nm absorbance normalized to zero hour, 5 hr” value amounted to 4.92; the “Substrate use, 590 nm absorbance normalized to zero hour, 7 hr” value is 5.87. Under setting [3], the “590 nm absorbance normalized to zero hour (substrate use), 1 hr” value is 2.01; the “590 nm absorbance normalized … 2 hr” value was 3.00; the “590 nm absorbance normalized … 3 hr” value was found to be 3.61; the “590 nm absorbance normalized … 4 hr” value amounted to 4.04. In addition, under setting [3], the “590 nm absorbance normalized … 6 hr” value is 5.47; the “590 nm absorbance normalized … 8 hr” value was determined as 6.35; the “590 nm absorbance normalized … 9 hr” value came to 7.41; the “590 nm absorbance normalized … 10 hr” value stood at 7.21. Moreover, under setting [3], the “590 nm absorbance normalized … 11 hr” value is listed as 5.87.
